Experimental data taken from the supplement of paper PMC10307832.

Legend:
Experiment in all cases: relative viability (nuclei count vs DMSO), 5 days (fraction); higher = more cells survive
RAF265 + Alpelisib = compound: Cn1c(Nc2ccc(C(F)(F)F)cc2)nc2cc(Oc3ccnc(-c4ncc(C(F)(F)F)[nH]4)c3)ccc21 [RAF265] + Cc1nc(NC(=O)N2CCC[C@H]2C(N)=O)sc1-c1ccnc(C(C)(C)C(F)(F)F)c1 [Alpelisib] (partner 2 µM)
Outline: (§1)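 Relative viability equals treated-well nuclei counts divided by vehicle-well nuclei counts. Counts came from 4× images of lung cancer cell lines grown in 1536-well plates for 5 days after pin-tool dosing on the day after seeding. Dosing used one drug alone or a fixed anchor-drug dose plus five library-drug doses (not always all listed) in √10 steps, and values are medians of duplicate plates.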

RAF265 + OSI-027 = compound: Cn1c(Nc2ccc(C(F)(F)F)cc2)nc2cc(Oc3ccnc(-c4ncc(C(F)(F)F)[nH]4)c3)ccc21 [RAF265] + COc1cccc2cc(-c3nc([C@H]4CC[C@H](C(=O)O)CC4)n4ncnc(N)c34)[nH]c12 [OSI-027] (partner 0.5 µM)
Outline: as §1

RAF265 + Crizotinib = compound: Cn1c(Nc2ccc(C(F)(F)F)cc2)nc2cc(Oc3ccnc(-c4ncc(C(F)(F)F)[nH]4)c3)ccc21 [RAF265] + C[C@@H](Oc1cc(-c2cnn(C3CCNCC3)c2)cnc1N)c1c(Cl)ccc(F)c1Cl [Crizotinib] (partner 1 µM)
Outline: as §1

RAF265 + Foretinib = compound: Cn1c(Nc2ccc(C(F)(F)F)cc2)nc2cc(Oc3ccnc(-c4ncc(C(F)(F)F)[nH]4)c3)ccc21 [RAF265] + COc1cc2c(Oc3ccc(NC(=O)C4(C(=O)Nc5ccc(F)cc5)CC4)cc3F)ccnc2cc1OCCCN1CCOCC1 [Foretinib] (partner 0.25 µM)
Outline: as §1

| Cell Line | relative viability (RAF265 + Alpelisib; first compound 0.01 µM) | relative viability (RAF265 + Alpelisib; first compound 0.03162 µM) | relative viability (RAF265 + Alpelisib; first compound 0.1 µM) | relative viability (RAF265 + Alpelisib; first compound 0.3162 µM) | relative viability (RAF265 + Alpelisib; first compound 1 µM) | relative viability (RAF265 + OSI-027; first compound 0.01 µM) | relative viability (RAF265 + OSI-027; first compound 0.03162 µM) | relative viability (RAF265 + OSI-027; first compound 0.1 µM) | relative viability (RAF265 + OSI-027; first compound 0.3162 µM) | relative viability (RAF265 + OSI-027; first compound 1 µM) | relative viability (RAF265 + Crizotinib; first compound 0.01 µM) | relative viability (RAF265 + Crizotinib; first compound 0.03162 µM) | relative viability (RAF265 + Crizotinib; first compound 0.1 µM) | relative viability (RAF265 + Crizotinib; first compound 0.3162 µM) | relative viability (RAF265 + Crizotinib; first compound 1 µM) | relative viability (RAF265 + Foretinib; first compound 0.01 µM) | relative viability (RAF265 + Foretinib; first compound 0.03162 µM) | relative viability (RAF265 + Foretinib; first compound 0.1 µM) | relative viability (RAF265 + Foretinib; first compound 0.3162 µM) | relative viability (RAF265 + Foretinib; first compound 1 µM) |
| --- | --- | --- | --- | --- | --- | --- | --- | --- | --- | --- | --- | --- | --- | --- | --- | --- | --- | --- | --- | --- |
| NCI-H650 | 1.35 | 1.17 | 1.21 | 0.852 | 0.398 | 0.52 | 0.468 | 0.491 | 0.411 | 0.279 | 0.886 | 0.722 | 0.684 | 0.808 | 0.317 | 1.1 | 0.965 | 0.974 | 0.814 | 0.484 |
| NCI-H661 | 0.865 | 0.586 | 0.563 | 0.47 | 0.241 | 0.742 | 0.394 | 0.44 | 0.333 | 0.291 | 0.931 | 0.747 | 1.04 | 0.906 | 0.716 | 1.05 | 0.944 | 0.685 | 0.636 | 0.521 |
| NCI-H727 | 0.662 | 0.644 | 0.594 | 0.366 | 0.308 | 0.7 | 0.8 | 0.487 | 0.438 | 0.347 | 0.8 | 0.727 | 0.967 | 0.598 | 0.283 | 0.879 | 0.895 | 0.98 | 0.744 | 0.454 |
| NCI-H838 | 1.03 | 0.974 | 1.01 | 1.06 | 0.692 | 0.403 | 0.491 | 0.455 | 0.341 | 0.304 | 0.807 | 0.855 | 0.989 | 0.911 | 0.718 | 1.06 | 1.07 | 1.01 | 1.07 | 0.951 |
| NCI-H1355 | 0.829 | 0.791 | 0.794 | 0.427 | 0.229 | 0.461 | 0.314 | 0.3 | 0.251 | 0.217 | 1.11 | 1 | 1.02 | 0.766 | 0.337 | 0.65 | 0.923 | 0.823 | 0.464 | 0.38 |
| NCI-H1437 | 0.956 | 1.02 | 0.973 | 0.944 | 0.778 | 0.863 | 0.918 | 0.82 | 0.982 | 0.611 | 0.902 | 0.808 | 0.998 | 1.05 | 0.768 | 1.22 | 1.28 | 1.28 | 1.33 | 1.31 |
| NCI-H1563 | 0.977 | 0.999 | 0.973 | 0.898 | 0.985 | 0.769 | 0.772 | 0.738 | 0.706 | 0.739 | 0.88 | 0.916 | 0.849 | 0.801 | 0.824 | 1.05 | 1 | 0.984 | 0.989 | 0.935 |
| NCI-H1651 | 0.95 | 0.919 | 1.03 | 0.734 | 0.774 | 0.783 | 0.776 | 0.695 | 0.52 | 0.362 | 0.829 | 0.912 | 0.904 | 0.88 | 0.81 | 0.86 | 0.808 | 0.75 | 0.844 | 0.584 |
